From ChEMBL document CHEMBL4834420, “Projected Dose Optimization of Amino- and Hydroxypyrrolidine Purine PI3Kδ Immunomodulators” (J Med Chem, 2021)

Assays:
Cytochrome P450 3A4 = Cytochrome P450 3A4 (Homo sapiens, UniProt P08684); test: Inhibition of CYP3A4 (unknown origin); format: ADME
[1] = Protein binding in Wistar Han rat plasma; format: ADME, cell-free; conditions: read-out: PPB (converted)
[2] = target: PI3-kinase p110-delta/p85-alpha (Homo sapiens, UniProt O00329); test: Inhibition of N-terminal His6-tagged recombinant full length human p110delta/untagged recombinant full length human p85alpha expressed in baculovirus infected Sf21 insect cells using PIP2 as substrate preincubated for 15 mins followed by substrate addition and measured after 1 hr by HTRF assay
Sequence of PI3-kinase p110-delta/p85-alpha (P27986 whole entry, one chain of several): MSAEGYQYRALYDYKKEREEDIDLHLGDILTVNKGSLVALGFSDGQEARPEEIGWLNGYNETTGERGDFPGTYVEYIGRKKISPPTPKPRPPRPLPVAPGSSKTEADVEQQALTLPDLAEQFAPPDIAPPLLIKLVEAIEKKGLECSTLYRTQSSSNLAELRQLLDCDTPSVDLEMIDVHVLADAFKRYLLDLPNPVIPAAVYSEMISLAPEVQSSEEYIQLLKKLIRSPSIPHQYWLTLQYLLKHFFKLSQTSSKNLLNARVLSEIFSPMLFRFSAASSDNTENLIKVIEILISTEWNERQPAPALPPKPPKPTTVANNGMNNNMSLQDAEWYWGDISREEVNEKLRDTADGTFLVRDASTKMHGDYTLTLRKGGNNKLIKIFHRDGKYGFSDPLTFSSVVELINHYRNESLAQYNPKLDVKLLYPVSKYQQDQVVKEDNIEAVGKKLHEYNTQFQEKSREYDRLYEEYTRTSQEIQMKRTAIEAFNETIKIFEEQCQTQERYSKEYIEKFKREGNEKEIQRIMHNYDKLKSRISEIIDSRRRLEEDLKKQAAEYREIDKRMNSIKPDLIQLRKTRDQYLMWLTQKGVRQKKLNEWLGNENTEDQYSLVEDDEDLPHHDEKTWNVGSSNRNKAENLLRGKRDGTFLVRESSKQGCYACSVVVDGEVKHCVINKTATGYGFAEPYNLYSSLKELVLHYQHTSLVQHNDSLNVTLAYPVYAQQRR

[3] = Intrinsic clearance in Wistar Han rat at 0.5 mg/kg, iv or 1 mg/kg, po; format: ADME, organism-based; conditions: in vivo
[4] = target: T1, Phosphatidylinositol 4,5-bisphosphate 3-kinase catalytic subunit delta isoform (Mus musculus, UniProt O35904); test: Inhibition of mouse PI3Kdelta
T1 sequence (O35904 whole entry): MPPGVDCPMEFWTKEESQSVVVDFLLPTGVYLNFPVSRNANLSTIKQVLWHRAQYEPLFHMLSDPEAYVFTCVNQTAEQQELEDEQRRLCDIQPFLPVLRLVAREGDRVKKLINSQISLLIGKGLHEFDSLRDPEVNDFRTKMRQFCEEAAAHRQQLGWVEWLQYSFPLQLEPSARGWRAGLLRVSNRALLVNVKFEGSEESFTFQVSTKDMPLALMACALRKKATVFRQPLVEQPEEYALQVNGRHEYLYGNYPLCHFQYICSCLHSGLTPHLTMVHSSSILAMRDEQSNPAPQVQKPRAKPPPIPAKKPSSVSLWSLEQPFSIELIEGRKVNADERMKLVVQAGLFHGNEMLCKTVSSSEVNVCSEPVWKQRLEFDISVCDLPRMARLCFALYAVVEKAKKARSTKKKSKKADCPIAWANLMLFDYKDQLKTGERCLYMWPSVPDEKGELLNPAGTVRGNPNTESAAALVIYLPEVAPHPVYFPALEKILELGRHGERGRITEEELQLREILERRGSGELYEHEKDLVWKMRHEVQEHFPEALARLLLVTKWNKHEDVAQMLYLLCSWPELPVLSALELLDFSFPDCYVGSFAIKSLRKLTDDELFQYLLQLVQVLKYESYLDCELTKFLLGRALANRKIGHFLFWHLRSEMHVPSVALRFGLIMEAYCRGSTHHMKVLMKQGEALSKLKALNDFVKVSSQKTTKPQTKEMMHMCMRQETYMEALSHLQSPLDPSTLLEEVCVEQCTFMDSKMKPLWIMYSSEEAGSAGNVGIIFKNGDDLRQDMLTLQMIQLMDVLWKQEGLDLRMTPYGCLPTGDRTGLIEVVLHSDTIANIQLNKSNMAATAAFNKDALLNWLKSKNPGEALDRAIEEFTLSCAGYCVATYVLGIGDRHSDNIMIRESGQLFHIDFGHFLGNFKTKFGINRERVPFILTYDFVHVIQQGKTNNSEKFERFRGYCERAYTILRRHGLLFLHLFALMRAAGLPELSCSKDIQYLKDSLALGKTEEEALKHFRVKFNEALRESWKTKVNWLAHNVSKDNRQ

[5] = target: ATP-dependent translocase ABCB1 (Homo sapiens, UniProt P08183); test: Inhibition of PGP (unknown origin)
Sequence of ATP-dependent translocase ABCB1 (P08183 whole entry): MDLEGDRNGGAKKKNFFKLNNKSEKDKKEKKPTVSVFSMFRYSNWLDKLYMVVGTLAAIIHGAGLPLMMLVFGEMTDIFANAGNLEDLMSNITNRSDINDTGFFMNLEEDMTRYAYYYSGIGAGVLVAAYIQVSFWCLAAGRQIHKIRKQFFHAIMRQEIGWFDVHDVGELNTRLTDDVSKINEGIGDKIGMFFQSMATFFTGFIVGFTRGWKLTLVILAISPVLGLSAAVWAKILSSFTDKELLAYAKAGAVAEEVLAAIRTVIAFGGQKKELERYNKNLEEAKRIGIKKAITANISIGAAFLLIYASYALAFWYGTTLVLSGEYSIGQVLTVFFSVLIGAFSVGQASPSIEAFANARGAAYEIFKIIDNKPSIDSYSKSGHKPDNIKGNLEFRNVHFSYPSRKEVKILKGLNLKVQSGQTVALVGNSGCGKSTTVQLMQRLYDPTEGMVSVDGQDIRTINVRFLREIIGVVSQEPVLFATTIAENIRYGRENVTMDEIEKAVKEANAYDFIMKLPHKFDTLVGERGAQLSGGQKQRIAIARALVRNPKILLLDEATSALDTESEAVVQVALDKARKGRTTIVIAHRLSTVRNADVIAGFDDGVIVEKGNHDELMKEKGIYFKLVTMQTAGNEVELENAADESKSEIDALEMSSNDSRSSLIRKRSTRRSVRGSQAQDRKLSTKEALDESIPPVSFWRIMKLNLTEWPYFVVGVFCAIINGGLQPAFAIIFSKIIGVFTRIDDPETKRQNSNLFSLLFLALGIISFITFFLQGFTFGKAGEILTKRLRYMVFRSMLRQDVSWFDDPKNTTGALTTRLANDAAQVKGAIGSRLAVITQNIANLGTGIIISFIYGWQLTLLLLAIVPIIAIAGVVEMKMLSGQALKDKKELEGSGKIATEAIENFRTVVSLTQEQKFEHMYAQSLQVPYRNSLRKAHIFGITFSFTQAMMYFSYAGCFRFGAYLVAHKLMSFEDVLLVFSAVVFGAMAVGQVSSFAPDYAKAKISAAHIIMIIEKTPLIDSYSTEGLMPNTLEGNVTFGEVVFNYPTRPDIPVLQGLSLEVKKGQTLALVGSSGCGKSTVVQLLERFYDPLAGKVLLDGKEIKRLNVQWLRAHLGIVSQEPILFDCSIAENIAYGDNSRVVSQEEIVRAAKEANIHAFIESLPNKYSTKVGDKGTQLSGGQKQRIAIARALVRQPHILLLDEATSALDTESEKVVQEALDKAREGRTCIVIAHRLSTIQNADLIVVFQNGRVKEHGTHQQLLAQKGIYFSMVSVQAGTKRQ

P-gp (MDR1) = test: Efflux ratio of apparent permeability from basolateral to apical side over apical to basolateral side in dog MDCK2 cells expressing MDR1 PGP; format: ADME, cell-based, Canis lupus familiaris, MDCKII-MDR1; conditions: MDCK-MDR1
[6] = target: T2, Phosphatidylinositol 4,5-bisphosphate 3-kinase catalytic subunit delta isoform (Homo sapiens, UniProt O00329); test: Inhibition of PI3Kdelta in human Ramos cells assessed as reduction in anti-IgM-antibody-induced phosphorylation of AKT at Ser473 residue preincubated for 20 mins followed by anti-IgM antibody stimulation and measured after 30 mins by alphascreen assay; format: cell-based
T2 sequence (O00329 whole entry): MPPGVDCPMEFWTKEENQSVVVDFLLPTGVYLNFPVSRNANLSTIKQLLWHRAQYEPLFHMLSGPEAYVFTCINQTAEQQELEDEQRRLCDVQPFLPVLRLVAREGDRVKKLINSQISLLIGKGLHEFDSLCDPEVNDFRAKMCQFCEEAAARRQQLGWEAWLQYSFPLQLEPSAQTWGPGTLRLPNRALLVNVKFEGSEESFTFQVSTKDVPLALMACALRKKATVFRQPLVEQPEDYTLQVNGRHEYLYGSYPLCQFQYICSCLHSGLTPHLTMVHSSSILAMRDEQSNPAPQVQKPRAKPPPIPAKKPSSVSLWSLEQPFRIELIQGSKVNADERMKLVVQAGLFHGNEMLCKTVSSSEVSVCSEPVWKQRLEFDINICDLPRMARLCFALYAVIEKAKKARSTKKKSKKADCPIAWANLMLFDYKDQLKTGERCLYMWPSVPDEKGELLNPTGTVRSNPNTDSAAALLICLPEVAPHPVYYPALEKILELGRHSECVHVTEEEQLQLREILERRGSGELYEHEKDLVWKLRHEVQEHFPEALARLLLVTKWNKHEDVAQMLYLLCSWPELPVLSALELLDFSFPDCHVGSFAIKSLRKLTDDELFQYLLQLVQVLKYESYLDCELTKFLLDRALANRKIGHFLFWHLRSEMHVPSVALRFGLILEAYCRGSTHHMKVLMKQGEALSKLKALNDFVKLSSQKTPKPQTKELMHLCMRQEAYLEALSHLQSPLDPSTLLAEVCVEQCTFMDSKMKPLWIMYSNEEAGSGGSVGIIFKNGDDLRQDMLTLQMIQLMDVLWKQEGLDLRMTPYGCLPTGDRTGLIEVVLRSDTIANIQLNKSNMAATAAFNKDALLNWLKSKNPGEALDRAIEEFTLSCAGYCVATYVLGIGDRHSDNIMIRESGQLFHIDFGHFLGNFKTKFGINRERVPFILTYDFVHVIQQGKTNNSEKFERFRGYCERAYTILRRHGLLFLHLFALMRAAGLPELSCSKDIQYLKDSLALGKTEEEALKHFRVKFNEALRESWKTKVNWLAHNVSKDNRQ

[7] = Protein binding in C57BL/6 mouse plasma; format: ADME, cell-free; conditions: read-out: PPB (converted)
[8] = Cmax in C57BL/6 mouse at 100 mg/kg; format: ADME, organism-based; design: dose 100 mg/kg; conditions: in vivo
[9] = Oral bioavailability in C57BL/6 mouse; format: ADME, organism-based; conditions: in vivo
[10] = Trough plasma concentration Brown Norway rat at 10 mg/kg, po; format: ADME, organism-based; conditions: in vivo, read-out: Cmin
[11] = target: Sodium channel protein type 5 subunit alpha (Homo sapiens, UniProt Q14524); test: Inhibition of Nav1.5 (unknown origin)
Sequence of Sodium channel protein type 5 subunit alpha (Q14524 whole entry): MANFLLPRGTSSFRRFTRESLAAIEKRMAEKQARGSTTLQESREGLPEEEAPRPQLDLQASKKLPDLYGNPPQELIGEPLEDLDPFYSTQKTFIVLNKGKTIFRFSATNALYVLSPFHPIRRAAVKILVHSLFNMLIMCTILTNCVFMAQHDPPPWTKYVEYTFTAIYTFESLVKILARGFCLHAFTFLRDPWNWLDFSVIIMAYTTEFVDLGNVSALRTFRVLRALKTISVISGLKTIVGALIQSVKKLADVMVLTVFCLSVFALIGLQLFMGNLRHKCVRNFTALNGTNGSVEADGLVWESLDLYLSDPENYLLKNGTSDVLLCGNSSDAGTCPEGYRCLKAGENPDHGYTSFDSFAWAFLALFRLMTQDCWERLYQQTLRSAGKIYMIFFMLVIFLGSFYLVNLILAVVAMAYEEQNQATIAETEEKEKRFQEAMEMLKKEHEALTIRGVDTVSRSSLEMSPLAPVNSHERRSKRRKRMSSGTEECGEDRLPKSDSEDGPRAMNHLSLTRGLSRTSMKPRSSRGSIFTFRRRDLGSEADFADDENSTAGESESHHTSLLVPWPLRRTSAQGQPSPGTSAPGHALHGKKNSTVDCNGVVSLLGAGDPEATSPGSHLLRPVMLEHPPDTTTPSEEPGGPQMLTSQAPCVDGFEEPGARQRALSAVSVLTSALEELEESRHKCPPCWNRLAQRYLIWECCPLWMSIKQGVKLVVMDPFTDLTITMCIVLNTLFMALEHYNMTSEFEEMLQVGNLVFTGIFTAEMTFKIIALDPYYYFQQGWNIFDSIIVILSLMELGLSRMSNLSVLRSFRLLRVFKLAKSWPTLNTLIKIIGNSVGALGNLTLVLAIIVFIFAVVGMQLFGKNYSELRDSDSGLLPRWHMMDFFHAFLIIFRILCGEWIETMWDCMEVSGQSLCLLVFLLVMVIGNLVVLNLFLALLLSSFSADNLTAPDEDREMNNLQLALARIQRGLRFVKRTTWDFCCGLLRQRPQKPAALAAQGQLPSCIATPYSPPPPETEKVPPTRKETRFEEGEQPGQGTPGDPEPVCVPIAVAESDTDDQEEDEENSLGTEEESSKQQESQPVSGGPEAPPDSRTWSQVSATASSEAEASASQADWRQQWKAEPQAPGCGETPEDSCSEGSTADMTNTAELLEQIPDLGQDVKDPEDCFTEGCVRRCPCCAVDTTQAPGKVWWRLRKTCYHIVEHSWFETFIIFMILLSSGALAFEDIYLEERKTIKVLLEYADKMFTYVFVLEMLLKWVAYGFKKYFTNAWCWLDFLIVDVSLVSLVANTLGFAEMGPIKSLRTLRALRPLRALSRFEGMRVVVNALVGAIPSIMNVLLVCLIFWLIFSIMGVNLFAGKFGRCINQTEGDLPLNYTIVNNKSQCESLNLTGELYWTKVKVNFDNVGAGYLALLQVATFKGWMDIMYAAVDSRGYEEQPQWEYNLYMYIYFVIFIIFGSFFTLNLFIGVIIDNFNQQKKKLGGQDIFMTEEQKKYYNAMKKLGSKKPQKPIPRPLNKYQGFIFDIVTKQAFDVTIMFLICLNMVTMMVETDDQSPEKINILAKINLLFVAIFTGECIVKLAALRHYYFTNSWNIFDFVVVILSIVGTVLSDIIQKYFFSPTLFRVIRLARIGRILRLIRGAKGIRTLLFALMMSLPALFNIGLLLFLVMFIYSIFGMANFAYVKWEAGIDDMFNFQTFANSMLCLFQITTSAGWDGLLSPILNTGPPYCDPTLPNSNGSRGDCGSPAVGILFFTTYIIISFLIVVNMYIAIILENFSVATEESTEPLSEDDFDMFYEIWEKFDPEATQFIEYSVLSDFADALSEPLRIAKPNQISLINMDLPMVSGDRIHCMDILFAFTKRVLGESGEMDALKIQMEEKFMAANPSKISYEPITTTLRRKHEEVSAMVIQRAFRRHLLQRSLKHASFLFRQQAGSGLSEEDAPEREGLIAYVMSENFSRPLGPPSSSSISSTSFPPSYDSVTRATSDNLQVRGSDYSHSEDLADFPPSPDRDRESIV

[12] = Plasma clearance in C57BL/6 mouse at 1 mg/kg, iv or 3 mg/kg, po; format: ADME, organism-based
[13] = Inhibition of dog PI3Kdelta; design: species or system Canis lupus familiaris
[14] = Protein binding in human plasma; format: ADME, cell-free; conditions: read-out: PPB (converted)
[15] = Trough plasma concentration Brown Norway rat at 30 mg/kg, po; format: ADME, organism-based; conditions: in vivo, read-out: Cmin
BCRP = test: Efflux ratio of apparent permeability from basolateral to apical side over apical to basolateral side in MDCK2 cells expressing BCRP; format: ADME, cell-based, Canis lupus familiaris, MDCK-II; conditions: dog
[16] = Intrinsic clearance in rat hepatocytes; format: ADME, cell-based, Hepatocyte; conditions: read-out: CLH

Sequence of Cytochrome P450 3A4 (P08684 whole entry): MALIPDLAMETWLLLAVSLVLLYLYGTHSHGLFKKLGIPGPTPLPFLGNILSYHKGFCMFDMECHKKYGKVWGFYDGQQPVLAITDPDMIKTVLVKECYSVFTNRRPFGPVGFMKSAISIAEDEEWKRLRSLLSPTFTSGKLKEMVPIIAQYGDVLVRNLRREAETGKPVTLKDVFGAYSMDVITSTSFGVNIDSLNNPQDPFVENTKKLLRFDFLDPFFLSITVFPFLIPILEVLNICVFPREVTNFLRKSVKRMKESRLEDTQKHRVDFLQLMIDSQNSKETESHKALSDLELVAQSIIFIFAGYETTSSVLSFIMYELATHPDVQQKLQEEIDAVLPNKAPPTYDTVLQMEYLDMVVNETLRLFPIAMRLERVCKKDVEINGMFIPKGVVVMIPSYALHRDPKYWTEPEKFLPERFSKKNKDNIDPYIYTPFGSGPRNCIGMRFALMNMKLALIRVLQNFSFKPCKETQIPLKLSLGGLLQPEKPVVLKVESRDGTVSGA

CCn1c(-c2cnc(C)nc2)nc2c(N[C@H]3CCN(C(=O)C4CC4)C3)ncnc21
IC50 (Cytochrome P450 3A4): > 50000 nM | fraction unbound [1]: 0.18 | IC50 [2]: 1.6 nM | CL [3]: 64 mL/min/kg | IC50 [4]: 2.2 nM | inhibition (INH) [5]: Not Active | efflux ratio (P-gp (MDR1)): 16 | IC50 [6]: 20 nM | fraction unbound [7]: 0.47 | Cmax [8]: 33000 nM | bioavailability [9]: 77% | concentration [10]: 14 nM | IC50 [11]: > 50000 nM | clearance [12]: 45 mL/min/kg | IC50 [13]: 2.5 nM | fraction unbound [14]: 0.7 | concentration [15]: 103 nM | efflux ratio (BCRP): 5 | CLint scaled [16]: < 2 mL/min/kg
